Test results: paper PMC10006169, “A phase I trial of LXS196, a protein kinase C (PKC) inhibitor, for metastatic uveal melanoma” (British Journal of Cancer, 2023)

Test system: patients with MUM
Experiment: Patient disposition, duration of exposure and dose interruptions
Type: in vivo
Experimental: During dose escalation, patients received oral LXS196 either once daily (QD; 100–1000 mg) or twice daily (BID; 200–400 mg) in 28-day cycles until disease progression, intolerable toxicity or withdrawal of consent (Supplementary Fig. 1). Dosing was omitted on the second day of the first cycle (C1D2) to allow for longer post-dose sampling in order to better characterise PK. LXS196 was given on an empty stomach, at least 1 h before or 2 h after a meal. Dose escalation was guided by safety, PK data and a two-parameter Bayesian Logistic Regression Model (BLRM) employing escalation with overdose control (EWOC) criteria. The DLT period lasted 28 days after the first dose of LXS196. […] Upon determination of the MTD/RDE, the expansion part of the study was opened to further evaluate the safety, tolerability, PK and PD of LXS196 at the RDE in patients with MUM. No hypothesis testing was planned in this study, and therefore, no formal sample size calculation was needed. The sample size was selected to ensure the BLRM had adequate operating characteristics when selecting the MTD/RDE.
Routine safety assessments, including laboratory assessments, physical examinations, vital signs and electrocardiograms (ECGs), were conducted at regular intervals throughout the study and more frequently as needed following patient assessment by the treating physician. Adverse events (AEs) were assessed continuously according to the National Cancer Institute Common Terminology Criteria for Adverse Events (NCI-CTCAE) v4.03.

## CC1(N)CCN(c2cccnc2NC(=O)c2nc(-c3ncccc3C(F)(F)F)cnc2N)CC1 [LXS196]
300 mg BID (RDE) n=18
  Dose interruption by reason: adverse event: 3 (16.7) n (%)
  Dose interruption by reason: patient/guardian decision: 0 n (%)
  Dose interruption by reason: physician decision: 0 n (%)
  With at least one dose interruption: 3 (16.7) n (%)
  With more than one dose interruption: 1 (5.6) n (%)
  With only one dose interruption: 2 (11.1) n (%)
All BID n=30
  Dose interruption by reason: adverse event: 5 (16.7) n (%)
  Dose interruption by reason: patient/guardian decision: 1 (3.3) n (%)
  Dose interruption by reason: physician decision: 0 n (%)
  With at least one dose interruption: 6 (20) n (%)
  With more than one dose interruption: 3 (10.0) n (%)
  With only one dose interruption: 3 (10) n (%)
All QD n=38
  Dose interruption by reason: adverse event: 11 (28.9) n (%)
  Dose interruption by reason: patient/guardian decision: 0 n (%)
  Dose interruption by reason: physician decision: 1 (2.6) n (%)
  With at least one dose interruption: 11 (28.9) n (%)
  With more than one dose interruption: 5 (13.2) n (%)
  With only one dose interruption: 6 (15.8) n (%)
All patients N=68
  Dose interruption by reason: adverse event: 16 (23.5) n (%)
  Dose interruption by reason: patient/guardian decision: 1 (1.5) n (%)
  Dose interruption by reason: physician decision: 1 (1.5) n (%)
  With at least one dose interruption: 17 (25) n (%)
  With more than one dose interruption: 8 (11.8) n (%)
  With only one dose interruption: 9 (13.2) n (%)
